Assay: gradient 5% acetonitrile 3 min, to 50% in 2 min, to 85% in 15 min, held 3 min, 100 µL/min
Settings: column: Zorbax Extend-C18 2.1 x 50 mm; eluents: water / acetonitrile, 0.1% formic acid
In short: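 Data were gathered over 3 months by HPLC coupled to a quadrupole time-of-flight mass spectrometer, operated in positive and negative ionization mode. Mixtures of ~100 pure standards ran on a Zorbax Extend-C18 column (2.1 × 50 mm, 1.8 μm) at 100 μL/min, with water and acetonitrile each containing 0.1% formic acid and dead and dwell volumes of 40 μL and 900 μL. Retention time was read from adduct peaks picked by computer and checked manually.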

Compound	RP-LC retention time
COCCNC(=O)c1cc(-c2ccccn2)nc2ccccc12	650 s
Cc1ccn2cc(C(=O)NC3CCN(Cc4ccccc4)CC3)nc2c1	804 s
CCC(=O)Nc1cnc(-c2ccc(F)cc2)nc1	794 s
Cc1ccc(Oc2nccnc2SCC(=O)Nc2cc(C)cc(C)c2)cc1	1200 s
CCN1C(=O)c2cccnc2Sc2cc(CNC(=O)c3ccc(OC)cc3OC)ccc21	784 s
COCCCNC(=O)c1sc2ncn(CC(=O)N3CC(C)CC(C)C3)c(=O)c2c1C (configuration not stated)	713 s
CCCCOc1ccc(NC(=O)c2cc(=O)c3cc(CC)ccc3o2)c2cccnc12	786 s
CCOC(=O)C1CCCN(c2ccc(-n3nc(C)cc3C)nn2)C1 (configuration not stated)	680 s
CC(C)n1cnc2cc(CNC(=O)c3ccc(C#N)cc3)ccc21	619 s
C[C@]12CCC3C(CC[C@H]4C[C@H](O)CC[C@]34C)C1CC[C@@H]2C(=O)CO (some centres not stated)	1020 s
COc1ccc2c(C)c(CCC(=O)N3CCC(C(N)=O)CC3)c(=O)oc2c1C	670 s
CN1C(=O)CCc2cc(NC(=O)c3ccoc3)ccc21	653 s
CC(C)Oc1ccc(CNC(=O)c2nnc(-c3ccc(S(=O)(=O)N(C)C)cc3)o2)cc1	943 s
O=C(OCCN1CCN(C2=NS(=O)(=O)c3ccccc32)CC1)c1ccccc1	656 s
CCc1ccc(C(=O)N2CCC(COc3ccc(C(=O)NC(C)C)cc3)CC2)cc1	941 s
Cn1nccc1C(=O)N1CCN(c2cc(=O)n(C)c(=O)n2C)CC1	587 s
COc1cccc(-c2noc(C3CCCN3C(=O)Nc3ccccc3)n2)c1 (configuration not stated)	961 s
Cc1cc(C)cc(NC(=O)C2CCCN(S(=O)(=O)c3cc(-c4noc(C)n4)cs3)C2)c1 (configuration not stated)	1060 s
COc1ccc(CCC(=O)N2CCC(c3cc(N)on3)CC2)cc1	681 s
COc1ccc(-c2cc3nn(CC(=O)NC(C)(C)C)c(=O)n3c(C)n2)cc1	842 s
Cc1ccc2c(=O)c(C(=O)N3CCC(C)CC3)cn(CC(=O)NC3CCCCC3)c2n1	762 s
COc1ccc(CCNC(=O)C2CN(S(C)(=O)=O)CC23CCCCC3)cc1OC (configuration not stated)	763 s
COc1cccc(CNC(=O)N2CCc3nc[nH]c3C2)c1	625 s

Compound	RP-LC retention time
CN(C)C(=O)c1n[nH]c2c1CN(C(=O)c1cccc(Cl)c1)CC2	642 s
Nc1cc(C2CCN(S(=O)(=O)c3cccc(F)c3)CC2)no1	755 s
O=C(CC(=O)N1CCN(c2ccccc2)CC1)Nc1ccc2nc3n(c(=O)c2c1)CCCCC3	720 s
Cc1ccn2c(NC(=O)c3ccc(Br)cc3)c(-c3ccccc3)nc2c1	709 s
O=C(c1csc(S(=O)(=O)N2CCC(C(=O)N3CCOCC3)CC2)c1)N1CCOCC1	620 s
CC(NCC(O)COc1c(F)cc(Br)cc1F)c1ccccc1 (configuration not stated)	618 s
CCCn1c(=O)c(C)nc2cc(-c3noc(C4CC(=O)N(c5ccc(C)c(C)c5)C4)n3)ccc21 (configuration not stated)	1050 s
O=C(CCNC(=O)Cn1cnc2ccccc2c1=O)NCCc1c[nH]c2ccccc12	668 s
Cc1ccccc1S(=O)(=O)N1CCC(Cc2nncn2-c2ccccc2)CC1	827 s
Cc1nn(CCC(=O)NCCCN2CCc3ccccc3C2)c(=O)c2nn(-c3ccccc3)c(C)c12	648 s
O=C(NC1CCS(=O)(=O)C1)c1ccc(N2CCCC2)nn1 (configuration not stated)	520 s
CC1=C(c2ccc(F)cc2)S(=O)(=O)N=C1N1CCCN(C(=O)NCC(C)C)CC1	793 s
CC(CN(CCS(=O)(=O)N1CCNCC1)C(=O)c1ccc(Br)cc1)c1ccccc1 (configuration not stated)	735 s
CN(C)S(=O)(=O)c1cccc(-c2nnc(-c3ccccc3Cl)o2)c1	941 s
CCc1ccc(S(=O)(=O)c2cnc(N3CCN(c4cccc(Cl)c4)CC3)nc2N)cc1	1270 s
O=C(c1ccc(N2C[C@H]3C[C@H](C2)[C@H]2CCCC(=O)N2C3)nc1)N1CCN(c2ncccn2)CC1	567 s
CC(CCc1ccco1)NC(=O)C1CCN(c2nc(-c3ccc(Cl)cc3)no2)CC1 (configuration not stated)	1080 s
COc1cccc(NC(=O)C2CCN(S(C)(=O)=O)c3cc(Cl)ccc3O2)c1 (configuration not stated)	966 s
CN1C(=O)c2ccccc2Oc2ccc(C(=O)NCc3ccc(Cl)cc3)cc21	957 s
O=C(c1cc2ccccc2[nH]1)N1CCN(c2cc(-c3cccnc3)[nH]n2)CC1	630 s
CCN(CC)CCCNC(=O)C1c2cc(OC)c(OC)cc2C(=O)N2CCc3ccccc3C12 (configuration not stated)	608 s
Cc1cccc(NC(=O)Cn2c(N)nc(C)cc2=O)c1	601 s
O=C(NCCn1ncccc1=O)Nc1ccccc1C(F)(F)F	642 s

Compound	RP-LC retention time
O=S(=O)(NCc1ccccc1F)c1ccccc1-c1nc(-c2cccc(F)c2)no1	1170 s
COc1ccc(OCc2nc(-c3ccc(-c4csc(C)n4)cc3)no2)cc1	1170 s
COC(=O)c1cc2c(=O)n(-c3ccccc3Cl)ccc2nc1C	830 s
COc1ccc(C2CCCN2C(=O)c2ccnn2C)cc1 (configuration not stated)	722 s
Cc1nc2cccnc2n1CCN1CCN(C(=O)Nc2ccc(F)cc2F)CC1	585 s
Cc1noc(C)c1S(=O)(=O)N1CC(N(Cc2cccnc2)CC(C)C)C1	706 s
COc1ccc(-c2noc(CCCC(=O)Nc3nc(-c4ccccc4)cs3)n2)cc1OC	982 s
CC(C)(C)C(O)CCNC(=O)C(=O)NCc1ccccc1 (configuration not stated)	740 s
Cc1cc(NC(=O)Nc2ccc3nc(N4CCN(C)CC4)cc(C)c3c2)ccc1Br	642 s
COc1ccc(Cl)cc1NS(=O)(=O)c1c(C)sc(C)c1-c1cc(C)[nH]n1	1040 s
Oc1ccc2ccc3[nH]cnc3c2c1	625 s
CCC(=O)N1CCCC(c2nc(CNC(=O)C(C)C)cs2)C1 (configuration not stated)	632 s
CCOCCCNC(=O)N1[C@H]2CC[C@@H]1c1cnc(-c3ccc(F)cc3)nc1C2	800 s
CCOC(=O)C1=C(CNc2ccc(F)cc2F)NC(=O)NC1c1ccccc1 (configuration not stated)	886 s
Cc1ccnc(N2CCC(C(=O)NCCCN3CCCCCC3)CC2)n1	556 s
Cc1ccc(N2C(=O)CC(N3CCC(C(N)=O)CC3)C2=O)cc1C (configuration not stated)	607 s
COc1ccc(N2CCN(C(=O)CC3CCN(C(=O)c4[nH]c(C)cc4C)CC3)CC2)cc1	739 s
Cc1ccc(-c2coc(-c3ccc(NC(=O)NCc4ccco4)cc3)n2)c(C)c1	1110 s
Cc1cc(Cl)ccc1S(=O)(=O)N1CCn2c(nnc2C2CCN(C(C)C)C2)C1 (configuration not stated)	629 s
COc1ccc(CCNC(=O)C2CCN(C(=O)C3Sc4ccccc4NC3=O)CC2)cc1OC (configuration not stated)	694 s
O=C(c1sc2ccccc2c1Cl)N1CCN(c2ccccn2)CC1	678 s

From the METLIN SMRT retention time set (Domingo-Almenara et al. 2019)
